US20260035364A1, “BICYCLIC TETRAHYDROTHIAZEPINE DERIVATIVES” (Hoffmann-La Roche Inc., priority 2022, published 2026)

How the values were obtained:
DGKalpha = DGKalpha (Homo sapiens, UniProt P23743); assay: In vitro DGK inhibition assay (ADP-Glo, liposomes), DGKalpha; assay type: biochemical; parameters: hDGKalpha(1-735)-N-His; His (N); made in house; host or cells: Sf21 insect cells (baculovirus); details: 4 nM DGK α, 25 μM ATP, 125 uM DLG in liposomes, 1 hour reaction
Method in brief: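 Full-length human DGKα (4 nM) or DGKζ (2 nM) from Sf21 cells, with DLG substrate at 125 uM in PS/PC liposomes and ATP at 25 μM (α) or 50 μM (ζ); 1 h reaction. ADP formed read by ADP-Glo luminescence; compounds 11-point, 1:3 dilutions from 10 mM, 2% DMSO final.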

primary human T-cells = assay: IL2 secretion measurements in CD3-stimulated T-cells; assay type: cell-based; details: Homo sapiens, T-cell, 24 h, CD3 condition; for Emax: IL2 after 24 hours, 20 μM reference compound A1 = 100%, read-out: Emax IL2 (% activation); for EC50: IL2 secretion after 24 hours, read-out: Tcell IL2 CD3 EC50
Method in brief: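 Expanded primary human T-cells (100k/well) were stimulated on CD3 antibody-coated or PBS-coated plates with compounds in 5–6 point dose response from 20 or 10 μM top final (dilution factor 3.333, 0.2% DMSO final). IL2 in 24 h supernatants was measured by ProQuantum immunoassay or ELISA, normalized to DMSO (0%) and 20 μM reference compound A1 (100%) to fit EC50 and Emax.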

Chain of DGKalpha (P23743 whole entry): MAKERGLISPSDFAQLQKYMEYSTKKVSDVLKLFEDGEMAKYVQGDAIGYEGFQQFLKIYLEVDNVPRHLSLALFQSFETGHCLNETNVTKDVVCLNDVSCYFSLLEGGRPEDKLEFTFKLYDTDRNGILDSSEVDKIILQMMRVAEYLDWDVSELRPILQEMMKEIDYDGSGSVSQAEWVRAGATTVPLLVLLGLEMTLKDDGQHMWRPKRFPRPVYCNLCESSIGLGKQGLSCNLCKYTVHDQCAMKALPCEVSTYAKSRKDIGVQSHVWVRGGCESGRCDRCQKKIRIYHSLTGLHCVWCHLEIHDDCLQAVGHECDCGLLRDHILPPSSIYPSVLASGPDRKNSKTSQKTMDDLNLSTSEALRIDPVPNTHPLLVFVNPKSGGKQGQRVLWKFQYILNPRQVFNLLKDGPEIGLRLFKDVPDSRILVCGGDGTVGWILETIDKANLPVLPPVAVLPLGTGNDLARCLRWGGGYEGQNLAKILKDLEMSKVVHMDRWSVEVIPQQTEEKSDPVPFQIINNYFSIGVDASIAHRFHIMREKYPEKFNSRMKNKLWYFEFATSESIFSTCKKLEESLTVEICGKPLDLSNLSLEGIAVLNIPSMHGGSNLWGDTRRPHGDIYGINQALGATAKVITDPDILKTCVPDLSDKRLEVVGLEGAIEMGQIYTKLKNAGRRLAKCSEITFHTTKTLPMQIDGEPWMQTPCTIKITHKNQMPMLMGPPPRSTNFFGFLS

IC50 (DGKalpha) [µM]	EC50 (primary human T-cells) [µM]	SMILES	Emax (primary human T-cells) [%]
13.4	1.1	CC(C)(c1nnc(-c2ccc3c(c2)N(Cc2ccc(Oc4cccc(Cl)c4Cl)cc2)C(=O)[C@@H](N)CS3(=O)=O)o1)S(C)(=O)=O [Example 32, (3R)-3-amino-5-[[4-(2,3-dichlorophenoxy)phenyl]methyl]-7-[5-(1-methyl-1-methylsulfonyl-ethyl)-1,3,4-oxadiazol-2-yl]-1,1-dioxo-2,3-dihydro-1λ6,5-benzothiazepin-4-one]	82
1.16	3.13	COc1cccc(Oc2ccc(CN3C(=O)[C@@H](N)CS(=O)(=O)c4ccc(-c5nnc(C(C)(C)S(C)(=O)=O)o5)cc43)cc2)c1 [Example 42]	125
3.38	2.93	CC1(c2nnc(-c3ccc4c(c3)N(Cc3ccc(Oc5ccccc5)cc3)C(=O)[C@@H](N)CS4(=O)=O)o2)CCCS1(=O)=O (stereo partly drawn) [Example 58, (3R)-3-amino-7-[5-(2-methyl-1,1-dioxo-thiolan-2-yl)-1,3,4-oxadiazol-2-yl]-1,1-dioxo-5-[(4-phenoxyphenyl)methyl]-2,3-dihydro-1λ6,5-benzothiazepin-4-one]	136
0.483	2.6	CC(C)(c1nnc(-c2cc3c(cc2F)S(=O)(=O)C[C@H](N)C(=O)N3Cc2ccc(Oc3ccccc3)cc2)o1)S(C)(=O)=O [Example 27, (3R)-3-amino-8-fluoro-7-[5-(1-methyl-1-methylsulfonyl-ethyl)-1,3,4-oxadiazol-2-yl]-1,1-dioxo-5-[(4-phenoxyphenyl)methyl]-2,3-dihydro-1λ6,5-benzothiazepin-4-one]	215
1.73	1.32	CC(C)(c1nnc(-c2ccc3c(c2)N(Cc2ccc(OC(F)(F)C(F)F)cc2)C(=O)[C@@H](N)CS3(=O)=O)o1)S(C)(=O)=O [Example 3, (3R)-3-amino-7-[5-(1-methyl-1-methylsulfonyl-ethyl)-1,3,4-oxadiazol-2-yl]-1,1-dioxo-5-[[4-(1,1,2,2-tetrafluoroethoxy)phenyl]methyl]-2,3-dihydro-126,5-benzothiazepin-4-one]	102
1.27	1.24	COc1ccc(-c2ccc(CN3C(=O)[C@@H](N)CS(=O)(=O)c4ccc(-c5nnc(C(C)(C)S(C)(=O)=O)o5)cc43)cc2)cc1 [Example 21, (3R)-3-amino-5-[[4-(4-methoxyphenyl)phenyl]methyl]-7-[5-(1-methyl-1-methylsulfonyl-ethyl)-1,3,4-oxadiazol-2-yl]-1,1-dioxo-2,3-dihydro-1λ6,5-benzothiazepin-4-one]	89
11.1	8.14	CC(C)(c1nnc(-c2ccc3c(c2)N(Cc2ccc(Oc4ccc(F)c(Cl)c4)cc2)C(=O)[C@@H](N)CS3(=O)=O)o1)S(C)(=O)=O [Example 37, (3R)-3-amino-5-[[4-(3-chloro-4-fluoro-phenoxy)phenyl]methyl]-7-[5-(1-methyl-1-methylsulfonyl-ethyl)-1,3,4-oxadiazol-2-yl]-1,1-dioxo-2,3-dihydro-1λ6,5-benzothiazepin-4-one]	135
58.9	0.381	COc1ccc(-c2ccc(CN3C(=O)[C@@H](N)CS(=O)(=O)c4ccc(-c5noc(C(C)(C)S(C)(=O)=O)n5)cc43)cc2)cc1 [Example 63, (3R)-3-amino-5-[[4-(4-methoxyphenyl)phenyl]methyl]-7-[5-(1-methyl-1-methylsulfonyl-ethyl)-1,2,4-oxadiazol-3-yl]-1,1-dioxo-2,3-dihydro-1λ6,5-benzothiazepin-4-one]	57
2.34	1.01	CS(=O)(=O)C1(c2nnc(-c3cc4c(cc3F)S(=O)(=O)C[C@H](N)C(=O)N4Cc3ccc(Cl)cc3)o2)CC1 [Example 1, (3R)-3-amino-5-[(4-chlorophenyl)methyl]-8-fluoro-7-[5-(1-methylsulfonylcyclopropyl)-1,3,4-oxadiazol-2-yl]-1,1-dioxo-2,3-dihydro-1λ6,5-benzothiazepin-4-one]	55
0.447	0.545	CC(C)(c1nnc(-c2cc3c(cc2F)S(=O)(=O)C[C@H](N)C(=O)N3Cc2ccc(OC(F)(F)C(F)F)cc2)o1)S(C)(=O)=O [Example 26, (3R)-3-amino-8-fluoro-7-[5-(1-methyl-1-methylsulfonyl-ethyl)-1,3,4-oxadiazol-2-yl]-1,1-dioxo-5-[[4-(1,1,2,2-tetrafluoroethoxy)phenyl]methyl]-2,3-dihydro-1λ6,5-benzothiazepin-4-one]	159
0.944	5.27	CC(C)(c1nnc(-c2ccc3c(c2)N(Cc2ccc(-c4ccc(F)cn4)cc2)C(=O)[C@@H](N)CS3(=O)=O)o1)S(C)(=O)=O [Example 9, (3R)-3-amino-5-[[4-(5-fluoro-2-pyridyl)phenyl]methyl]-7-[5-(1-methyl-1-methylsulfonyl-ethyl)-1,3,4-oxadiazol-2-yl]-1,1-dioxo-2,3-dihydro-1λ6,5-benzothiazepin-4-one]	65
1.09	0.328	CC(C)(c1nnc(-c2cc3c(cc2F)S(=O)(=O)C[C@H](N)C(=O)N3Cc2ccc(Cl)cc2)o1)S(C)(=O)=O [Example 2, (3R)-3-amino-5-[(4-chlorophenyl)methyl]-8-fluoro-7-[5-(1-methyl-1-methylsulfonyl-ethyl)-1,3,4-oxadiazol-2-yl]-1,1-dioxo-2,3-dihydro-1λ6,5-benzothiazepin-4-one]	94
4.75	0.58	CC(C)(c1nnc(-c2ccc3c(c2)N(Cc2ccc(Oc4cccc(F)c4)cc2)C(=O)[C@@H](N)CS3(=O)=O)o1)S(C)(=O)=O [Example 33, (3R)-3-amino-5-[[4-(3-fluorophenoxy)phenyl]methyl]-7-[5-(1-methyl-1-methylsulfonyl-ethyl)-1,3,4-oxadiazol-2-yl]-1,1-dioxo-2,3-dihydro-1λ6,5-benzothiazepin-4-one]	58
2.11	0.216	COc1ccc(-c2ccc(CN3C(=O)[C@@H](N)CS(=O)(=O)c4cc(F)c(-c5noc(C(C)(C)S(C)(=O)=O)n5)cc43)cc2)cc1 [Example 50, (3R)-3-amino-8-fluoro-5-[[4-(4-methoxyphenyl)phenyl]methyl]-7-[5-(1-methyl-1-methylsulfonyl-ethyl)-1,2,4-oxadiazol-3-yl]-1,1-dioxo-2,3-dihydro-1λ6,5-benzothiazepin-4-one]	99
> 62.5	2.21	COc1cccc(-c2ccc(CN3C(=O)[C@@H](N)CS(=O)(=O)c4ccc(-c5nnc(C(C)(C)S(C)(=O)=O)o5)cc43)cc2)c1 [Example 22, (3R)-3-amino-5-[[4-(3-methoxyphenyl)phenyl]methyl]-7-[5-(1-methyl-1-methylsulfonyl-ethyl)-1,3,4-oxadiazol-2-yl]-1,1-dioxo-2,3-dihydro-1λ6,5-benzothiazepin-4-one]	63
11.1	> 10	COc1ccc(-c2ccc(CN3C(=O)[C@@H](N)CS(=O)(=O)c4ccc(-c5nnc(C(C)(C)S(C)(=O)=O)o5)cc43)cc2)c(C)c1 [Example 49, (3R)-3-amino-5-[[4-(4-methoxy-2-methyl-phenyl)phenyl]methyl]-7-[5-(1-methyl-1-methylsulfonyl-ethyl)-1,3,4-oxadiazol-2-yl]-1,1-dioxo-2,3-dihydro-1λ6,5-benzothiazepin-4-one]	34
1.07	3.35	COCC(C)(C)Oc1ccc(CN2C(=O)[C@@H](N)CS(=O)(=O)c3cc(F)c(-c4noc(C(C)(C)S(C)(=O)=O)n4)cc32)cc1 [Example 62, (3R)-3-amino-8-fluoro-5-[[4-(2-methoxy-1,1-dimethyl-ethoxy)phenyl]methyl]-7-[5-(1-methyl-1-methylsulfonyl-ethyl)-1,2,4-oxadiazol-3-yl]-1,1-dioxo-2,3-dihydro-benzothiazepin-4-one]	169
